Experimental findings from patent US10617679B2, “Deuterated compounds and medical uses thereof” (JINGLUWEIDAI INFORMATION CONSULTING SERVICE (BEIJING) CO. …, priority 2016, dated 2020) are described below.

The structures appear in SMILES notation.

One data set concerns rat formalin model. Description: Analgesic effects of intragastric administration in a rat formalin model. Type of data set: in vivo, SD rats. To be noted: mean ± SD; for Reaction time for phase I: licking time 0-5 min after formalin; for Reaction time for Phase II: licking time 15-30 min after formalin. The method, then: SD rats (male, weight 160-180 g) were randomly divided into groups with 6 rats in each group. After the rats were intragastrically administered different doses separately, they were placed in PVC observation boxes for habituation. After 30 min, the rats were injected subcutaneously with 20 μL of 2.7% formalin solution into the plantar surface of the left hind paws, and quickly put back in the PVC observation boxes for observation. The length of time the rats spent licking the injected-formalin paws at the early response (0-5 min, phase I) and the late response (15-30 min, Phase II) was recorded, and the analgesic activities of the test compounds were evaluated according to the length of time the rats spent licking during the period of observation. The experimental data were expressed as mean±standard deviation. The shorter the licking time, the better the analgesic effect of the compound.

In data set [1] the test system is rat chronic sciatic nerve compression neuralgia model. Description: Analgesic effects of intragastric administration in a rat chronic sciatic nerve compression neuralgia model. To be noted: pain threshold 1 hour after administration. Type of data set: in vivo, SD rats. The method, then: SD rats (male, weight 160-180 g) were anesthetized using sodium pentobarbital (40 mg/kg), of which the sciatic nerves were separated in the middle segment of the right hind limbs. In the anterior segment of the sciatic nerve to be bifurcated, the sciatic nerve was separated from the surrounding tissue using a sterile glass hook. Four rings were loosely ligated with sterile chrome gut (No. 4, 0.15 mm in diameter) by an interval of 1 to 2 mm. Topically sprinkled with penicillin powder. The muscle tissue and skin were sutured. The rats were placed in a cage with cork dust. In the sham surgery group, the sciatic nerve was only exposed, and the other treatments were the same as described above. The rats after surgery were placed in a metal cage. […] The weight of the filament was recorded and set to be the threshold (in g). Meanwhile, the number of foot-lifting response to the 10 stimulations of the fiber filaments of different weights was recorded, and the highest threshold was set at 26 g.
5-6 rats in each group were intragastrically administered and the pain thresholds were measured 1 hour after administration. Statistical analysis of the thresholds was performed using non-parametric Wilcoxon 2-Sample Test and Kruskal-Wallis Test, and the data was analyzed with SASS data processing software. Analgesic percent (%)=(pain threshold after drug treatment−pain threshold before drug treatment)/(maximal analgesia threshold−pain threshold before drug treatment)[…].

Data set [2] concerns oxycodone-induced place preference in rats. Description: Inhibition of oxycodone-induced place preference in rats. Type of data set: in vivo, SD rats. To be noted: day 10, within 15 minutes. The protocol: SD rats (male, weight 160-180 g) were placed in conditioned place preference (CPP) training boxes, where the partition door between the boxes was open. Time the rats spent in each of the boxes was recorded within 15 min in order to determine the natural tendency of the rats. The rats were then randomly divided into groups with 10 rats in each group according to the amount of time spent in the white box. The white box was a drug box, and the black box was a box with the absence of the drug. After intragastric administration with a test compound for 40 minutes, the rats were injected subcutaneously with oxycodone (2.5 mg/kg, s.c.) or saline, and immediately placed in the white box or the black box to be trained for 45 minutes, once a day for 9 consecutive days. On the 10th day, the rats were placed in the training boxes with the partition door open. The time the rats spent in the white box was recorded within 15 minutes to evaluate effects on place preference in the rats.

The subject of a further data set is blood pressure in rats. Description: Effects on blood pressure in rats. Type of data set: in vivo, SD rats. The method, then: (§1) SD rats (male, weight 160-180 g) were fasted for 12 hours before administration but had free access to drinking water. The rats were randomly divided into groups. They were anesthetized with an intraperitoneal injection of 50-60 mg/kg dose of sodium pentobarbital. Each rat was fixed on the back on the surgical table. The skin was cut from the center of the neck, and an incision of about 2.5 cm was made. The subcutaneous tissue and the median muscle were separated; the trachea was fully exposed; and the endotracheal intubation was performed. The subcutaneous tissue was separated from front to back on the right side; the right common carotid artery, the vagus nerve and the sympathetic nerve were exposed; and the carotid artery cannulation was performed. Finally, the endotracheal tube and the carotid artery cannula were respectively connected to a respiration transducer and a blood pressure transducer, and then connected to a multifunctional physiological recorder. At 30 minutes after surgery, the rats were intragastrically administrated. Heart rate and blood pressure were measured at different time points after administration.

Another data set has as its system heart rate in rats. Description: Effects on heart rate in rats. Type of data set: in vivo, SD rats. The protocol:
as §1

The test system of another data set is Wistar rats. Description: Evaluation of subacute toxicity (14 days, intragastric). Type of data set: in vivo. To be noted: 40 mg/kg intragastric once a day for 14 days. The protocol:
Male Wistar rats were randomly divided into groups with 10 rats in each group and weighed. A certain concentration of a test sample was ground and suspended in a 0.5% sodium carboxymethyl cellulose solution. The sodium carboxymethyl cellulose suspension containing 40 mg/kg of the test compound and a blank sodium carboxymethyl cellulose suspension as a control were intragastrically administered, once a day for 14 consecutive days. After the last administration, the rats were fasted but had free access to drinking water for 12 hours, and then anesthetized. Their blood samples were obtained from the abdominal aortas. According to SOPB093 “Standard Operating Procedures for Serum Preparation” in National Beijing Center for Drug Safety Evaluation and Research, serum was prepared for the determination of blood biochemical and immunological indicators; according to SOPB032 “Preparation of vacuum tubes with EDTA anticoagulation”, EDTA anticoagulation was prepared for the general blood routine tests.

The mark [3] stands for this setting: 20 mg/kg intragastric, time point 0.
[4] abbreviates: 20 mg/kg intragastric, time point 30.
Setting [5] is: 20 mg/kg intragastric, time point 60.
[6] abbreviates: 20 mg/kg intragastric, time point 90.
Setting [7] is: 20 mg/kg intragastric, time point 120.
Where [8] appears, read: 20 mg/kg intragastric, time point 180.
Where [9] appears, read: 40 mg/kg intragastric, time point 0.
Setting [10] is: 40 mg/kg intragastric, time point 30.
The mark [11] stands for this setting: 40 mg/kg intragastric, time point 60.
Where [12] appears, read: 40 mg/kg intragastric, time point 90.
Where [13] appears, read: 40 mg/kg intragastric, time point 120.
Where [14] appears, read: 40 mg/kg intragastric, time point 180.

As for `[2H]C([2H])([2H])Oc1cc2c(cc1OC)CCN1Cc3c(ccc(OC)c3OC)C[C@@H]21` [Formula I3, (13a S)-3,9,10-trimethoxy-2-[(trideutero)-methoxy]-6,8,13,13a-tetrahydro-5H-isoquinolino[2,1-b]isoquinoline], the “Reaction time for phase I” value in the data set with rat formalin model (20 mg/kg intragastric) was determined as 79.6 ± 31.3 s; with rat formalin model (40 mg/kg intragastric), 45.1 ± 29.4 s. In addition, the entries for the “Reaction time for Phase II” value in the data set on rat formalin model (20 mg/kg intragastric) and in the data set with rat formalin model (40 mg/kg intragastric) were 126.3 ± 29.6 s and 72.3 ± 37.8 s, respectively. Besides, the Analgesic percent in data set [1] (20 mg/kg intragastric) turned out to be 44.80%; in data set [1] (40 mg/kg intragastric), 68.67%.

With `[2H]C([2H])([2H])Oc1ccc2c(c1OC)CN1CCc3cc(OC)c(OC)cc3[C@@H]1C2` [Formula I2, (13a S)-2,3,9-trimethoxy-10-[(trideutero)-methoxy]-6,8,13,13a-tetrahydro-5H-isoquinolino[2,1-b]isoquinoline], the “Reaction time for phase I” value in the data set with rat formalin model (20 mg/kg intragastric) worked out at 82.1 ± 16.3 s; in the data set with rat formalin model (40 mg/kg intragastric), 41.0 ± 10.7 s. Also, the entries for the “Reaction time for Phase II” value with rat formalin model (20 mg/kg intragastric) and with rat formalin model (40 mg/kg intragastric) were 64.5 ± 19.5 s and 46.5 ± 16.0 s, respectively. Further, the results for the Analgesic percent in data set [1] (20 mg/kg intragastric) and in data set [1] (40 mg/kg intragastric) were 59.00% and 68.86%, respectively. Besides, the “Time spent in the drug box (Mean ± S)” value in data set [2] (test dose 10 mg/kg intragastric + oxycodone 2.5 mg/kg s.c.) stood at 193.94 ± 44.3 s; in data set [2] (test dose 20 mg/kg intragastric + oxycodone 2.5 mg/kg s.c.), 140.59 ± 28.52 s. Further, the Blood pressure is 113.1 ± 15.7 mmHg in the data set with blood pressure in rats (setting [3]); 113.4 ± 17.3 mmHg in the data set on blood pressure in rats (setting [4]); 101.5 ± 27.46 mmHg in the data set on blood pressure in rats (setting [5]); 102.25 ± 21.6 mmHg in the data set on blood pressure in rats (setting [6]); 113.1 ± 14.2 mmHg in the data set on blood pressure in rats (setting [7]); 102.3 ± 7.6 mmHg in the data set with blood pressure in rats (setting [8]). Also, the Blood pressure with blood pressure in rats (setting [9]) stood at 114.6 ± 19.4 mmHg; with blood pressure in rats (setting [10]), 95.5 ± 15.9 mmHg; with blood pressure in rats (setting [11]), 82.5 ± 19.8 mmHg; in the data set with blood pressure in rats (setting [12]), 92.8 ± 18.6 mmHg; in the data set with blood pressure in rats (setting [13]) it was 110.5 ± 15.5 mmHg; with blood pressure in rats (setting [14]), 100.0 ± 17.8 mmHg. Further, the Heart rate worked out at 400.8 ± 32.1 BTM in the data set on heart rate in rats (setting [3]); 378.3 ± 30.3 BTM in the data set on heart rate in rats (setting [4]); 384.6 ± 48.2 BTM in the data set on heart rate in rats (setting [5]); 388.0 ± 21.4 BTM with heart rate in rats (setting [6]); 402.5 ± 59.3 BTM in the data set on heart rate in rats (setting [7]); 407.0 ± 36.5 BTM in the data set on heart rate in rats (setting [8]). For the same molecule, the Heart rate in the data set with heart rate in rats (setting [9]) came to 409.2 ± 41.7 BTM; in the data set on heart rate in rats (setting [10]) it was 390.7 ± 41.7 BTM; in the data set on heart rate in rats (setting [11]), 319.7 ± 57.2 BTM; in the data set with heart rate in rats (setting [12]), 353.8 ± 66.7 BTM; with heart rate in rats (setting [13]), 378.0 ± 47.6 BTM; in the data set with heart rate in rats (setting [14]), 407.0 ± 42.6 BTM. In the data set on Wistar rats (rat), this molecule came in with an ALT of 172.8 ± 37.5 U/L. The AST with Wistar rats (rat) is listed as 195.0 ± 32.1 U/L. In addition, the “histopathological examination of liver” value with Wistar rats (result in words) is given as “vacuolar degeneration of hepatocytes”. In addition, the “plasma ALT and AST versus control group” value in the data set on Wistar rats (result in words) is on record as “significant increase”.

`[2H]C([2H])([2H])Oc1cc2c(cc1OC)[C@@H]1Cc3ccc(OC)c(OC)c3CN1CC2` [Formula I4, (13a S)-2,9,10-trimethoxy-3-[(trideutero)-methoxy]-6,8,13,13a-tetrahydro-5H-isoquinolino[2,1-b]isoquinoline]: in the data set with rat formalin model (20 mg/kg intragastric), the “Reaction time for phase I” value came to 90.3 ± 29.0 s and the “Reaction time for Phase II” value came to 151.2 ± 31.6 s. In the data set with rat formalin model (40 mg/kg intragastric), the “Reaction time for phase I” value worked out at 61.5 ± 36.6 s and the “Reaction time for Phase II” value was determined as 74.3 ± 38.0 s.

For `[2H]C([2H])([2H])Oc1cc2c(cc1OC)CCN1Cc3c(ccc(OC)c3OC([2H])([2H])[2H])C[C@@H]21` [Formula I5, (13a S)-3,10-dimethoxy-2,9-di-[(trideutero)-methoxy]-6,8,13,13a-tetrahydro-5H-isoquinolino[2,1-b]isoquinoline], the “Reaction time for phase I” value in the data set on rat formalin model (20 mg/kg intragastric) came out at 85.8 ± 28.0 s; with rat formalin model (40 mg/kg intragastric) it was 53.4 ± 23.5 s. Moreover, the results for the “Reaction time for Phase II” value with rat formalin model (20 mg/kg intragastric) and with rat formalin model (40 mg/kg intragastric) were 112.7 ± 29.2 s and 66.5 ± 27.6 s, respectively. The Analgesic percent in data set [1] (20 mg/kg intragastric) came to 39.40%; in data set [1] (40 mg/kg intragastric), 67.56%.

Regarding `[2H]C([2H])([2H])Oc1c(OC)ccc2c1CN1CCc3cc(OC)c(OC)cc3[C@@H]1C2` [Formula I1, (13a S)-2,3,10-trimethoxy-9-[(trideutero)-methoxy]-6,8,13,13a-tetrahydro-5H-isoquinolino[2,1-b]isoquinoline], in the data set with rat formalin model (20 mg/kg intragastric), the “Reaction time for phase I” value came out at 82.4 ± 33.2 s and the “Reaction time for Phase II” value turned out to be 194.0 ± 35.7 s. Moreover, in the data set on rat formalin model (40 mg/kg intragastric), the “Reaction time for phase I” value turned out to be 42.6 ± 45.0 s and the “Reaction time for Phase II” value worked out at 92.7 ± 25.1 s.
